# From ChEMBL document CHEMBL6074708, “Advanced Delivery Systems and Novel Psilocin Derivatives for Enhanced Therapeutic Applications” (ACS Med Chem Lett, 2024)
# Biological target: 5-hydroxytryptamine receptor 2A (Homo sapiens) (UniProt P28223)
# Experiment: Displacement of [3H]ketanserin from human 5HT2A receptor expressed in HEK293 cells at 0 to 10000 nM preincubated with compound for 30 mins followed by [3H]ketanserin addition and measured after 60 mins by microBeta scintillation counter relative to psilocin
# Assay type: cell-based
# Settings: dose 0-10000 nM, time 90.0 min; call rule not given here
# Sequence of 5-hydroxytryptamine receptor 2A (Homo sapiens) (P28223 whole entry): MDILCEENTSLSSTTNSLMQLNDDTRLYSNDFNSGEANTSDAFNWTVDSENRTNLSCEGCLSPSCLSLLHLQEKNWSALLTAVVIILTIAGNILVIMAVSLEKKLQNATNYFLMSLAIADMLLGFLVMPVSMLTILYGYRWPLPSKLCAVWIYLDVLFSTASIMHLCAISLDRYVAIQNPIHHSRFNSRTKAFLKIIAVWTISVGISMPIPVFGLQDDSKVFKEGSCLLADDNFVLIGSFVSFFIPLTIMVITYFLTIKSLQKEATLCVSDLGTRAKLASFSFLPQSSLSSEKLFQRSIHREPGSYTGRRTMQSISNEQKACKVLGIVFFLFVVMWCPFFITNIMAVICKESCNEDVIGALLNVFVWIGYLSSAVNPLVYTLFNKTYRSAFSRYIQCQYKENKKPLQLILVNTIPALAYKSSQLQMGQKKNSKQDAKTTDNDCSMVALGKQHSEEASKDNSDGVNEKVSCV
row,Structure (SMILES),Activity
1,CN(C)CCc1c[nH]c2cccc(OC(=O)CCCC(=O)Oc3cccc4[nH]cc(CCN(C)C)c34)c12,Active; Higher Activity Observed
2,CN(C)CCc1c[nH]c2cccc(OC(=O)C(C)(C)C(=O)Oc3cccc4[nH]cc(CCN(C)C)c34)c12,Active; Higher Activity Observed
3,CN(C)CCc1c[nH]c2cccc(OC(=O)c3ccc(Br)cc3)c12,Active; Same Activity Observed
4,CN(C)CCc1c[nH]c2cccc(OC(=O)CCC(=O)Oc3cccc4[nH]cc(CCN(C)C)c34)c12,Active; Higher Activity Observed
5,CN(C)CCc1c[nH]c2cccc(OC(=O)[C@H]3C[C@@H]3C(=O)Oc3cccc4[nH]cc(CCN(C)C)c34)c12,Active; Higher Activity Observed
6,CN(C)CCc1c[nH]c2cccc(OC(=O)c3cccc(C(=O)Oc4cccc5[nH]cc(CCN(C)C)c45)c3)c12,Active; Higher Activity Observed
7,CN(C)CCc1c[nH]c2cccc(OC(=O)c3ccccc3F)c12,Active; Same Activity Observed
8,CN(C)CCc1c[nH]c2cccc(O)c12,Active; Same Activity Observed
